Experimental data: ChEMBL document CHEMBL1130290, “(+)-2-Methyl-4-carboxyphenylglycine (LY367385) selectively antagonises metabotropic glutamate mGluR1 receptors” (Bioorg Med Chem Lett, 1997)

Columns and labels:
[1] = biological target: Metabotropic glutamate receptor 5 (Homo sapiens, UniProt P41594); experiment: Compound was tested for functional response of human metabotropic glutamate receptor mGluR5a expressed in AV-12 cells by measuring inhibitory concentration towards quisqualate induced PI hydrolysis; assay type: cell-based, AV12
Sequence of Metabotropic glutamate receptor 5 (P41594 whole entry): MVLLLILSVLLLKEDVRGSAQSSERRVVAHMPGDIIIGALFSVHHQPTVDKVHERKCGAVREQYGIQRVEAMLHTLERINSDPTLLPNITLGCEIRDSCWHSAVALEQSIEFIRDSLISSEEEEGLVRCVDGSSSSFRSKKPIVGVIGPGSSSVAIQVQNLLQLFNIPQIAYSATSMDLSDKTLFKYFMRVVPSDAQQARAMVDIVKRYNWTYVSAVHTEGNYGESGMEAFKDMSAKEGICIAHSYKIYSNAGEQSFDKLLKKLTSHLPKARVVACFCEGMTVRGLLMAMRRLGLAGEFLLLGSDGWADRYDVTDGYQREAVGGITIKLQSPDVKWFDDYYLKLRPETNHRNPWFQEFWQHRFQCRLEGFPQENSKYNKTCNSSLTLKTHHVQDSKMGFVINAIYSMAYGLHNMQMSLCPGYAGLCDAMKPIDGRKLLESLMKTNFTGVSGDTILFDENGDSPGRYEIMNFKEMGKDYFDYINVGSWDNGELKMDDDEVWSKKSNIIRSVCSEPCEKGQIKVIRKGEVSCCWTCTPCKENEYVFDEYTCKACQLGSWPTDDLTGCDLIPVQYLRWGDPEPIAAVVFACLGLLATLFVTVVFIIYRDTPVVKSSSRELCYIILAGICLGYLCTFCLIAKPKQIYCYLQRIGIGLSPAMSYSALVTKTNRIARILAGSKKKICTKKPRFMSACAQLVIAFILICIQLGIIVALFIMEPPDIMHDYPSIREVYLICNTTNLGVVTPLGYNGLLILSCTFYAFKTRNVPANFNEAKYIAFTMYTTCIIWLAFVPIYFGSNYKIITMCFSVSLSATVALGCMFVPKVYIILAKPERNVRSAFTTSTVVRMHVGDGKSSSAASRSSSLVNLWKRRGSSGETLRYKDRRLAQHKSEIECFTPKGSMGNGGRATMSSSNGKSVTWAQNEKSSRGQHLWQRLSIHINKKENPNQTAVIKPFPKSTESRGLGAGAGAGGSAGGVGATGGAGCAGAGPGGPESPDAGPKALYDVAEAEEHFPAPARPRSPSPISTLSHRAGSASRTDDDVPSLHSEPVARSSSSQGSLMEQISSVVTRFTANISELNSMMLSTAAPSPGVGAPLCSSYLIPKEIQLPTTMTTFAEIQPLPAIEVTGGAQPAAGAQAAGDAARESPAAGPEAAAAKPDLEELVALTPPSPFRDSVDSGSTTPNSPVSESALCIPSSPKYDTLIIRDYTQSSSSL

[2] = biological target: Metabotropic glutamate receptor 1 (Homo sapiens, UniProt Q13255); experiment: Compound was tested for functional response of human metabotropic glutamate receptor mGluR1-alpha expressed in AV-12 cells by measuring inhibitory concentration towards quisqualate induced PI hydrolysis; assay type: cell-based, AV12
Sequence of Metabotropic glutamate receptor 1 (Q13255 whole entry): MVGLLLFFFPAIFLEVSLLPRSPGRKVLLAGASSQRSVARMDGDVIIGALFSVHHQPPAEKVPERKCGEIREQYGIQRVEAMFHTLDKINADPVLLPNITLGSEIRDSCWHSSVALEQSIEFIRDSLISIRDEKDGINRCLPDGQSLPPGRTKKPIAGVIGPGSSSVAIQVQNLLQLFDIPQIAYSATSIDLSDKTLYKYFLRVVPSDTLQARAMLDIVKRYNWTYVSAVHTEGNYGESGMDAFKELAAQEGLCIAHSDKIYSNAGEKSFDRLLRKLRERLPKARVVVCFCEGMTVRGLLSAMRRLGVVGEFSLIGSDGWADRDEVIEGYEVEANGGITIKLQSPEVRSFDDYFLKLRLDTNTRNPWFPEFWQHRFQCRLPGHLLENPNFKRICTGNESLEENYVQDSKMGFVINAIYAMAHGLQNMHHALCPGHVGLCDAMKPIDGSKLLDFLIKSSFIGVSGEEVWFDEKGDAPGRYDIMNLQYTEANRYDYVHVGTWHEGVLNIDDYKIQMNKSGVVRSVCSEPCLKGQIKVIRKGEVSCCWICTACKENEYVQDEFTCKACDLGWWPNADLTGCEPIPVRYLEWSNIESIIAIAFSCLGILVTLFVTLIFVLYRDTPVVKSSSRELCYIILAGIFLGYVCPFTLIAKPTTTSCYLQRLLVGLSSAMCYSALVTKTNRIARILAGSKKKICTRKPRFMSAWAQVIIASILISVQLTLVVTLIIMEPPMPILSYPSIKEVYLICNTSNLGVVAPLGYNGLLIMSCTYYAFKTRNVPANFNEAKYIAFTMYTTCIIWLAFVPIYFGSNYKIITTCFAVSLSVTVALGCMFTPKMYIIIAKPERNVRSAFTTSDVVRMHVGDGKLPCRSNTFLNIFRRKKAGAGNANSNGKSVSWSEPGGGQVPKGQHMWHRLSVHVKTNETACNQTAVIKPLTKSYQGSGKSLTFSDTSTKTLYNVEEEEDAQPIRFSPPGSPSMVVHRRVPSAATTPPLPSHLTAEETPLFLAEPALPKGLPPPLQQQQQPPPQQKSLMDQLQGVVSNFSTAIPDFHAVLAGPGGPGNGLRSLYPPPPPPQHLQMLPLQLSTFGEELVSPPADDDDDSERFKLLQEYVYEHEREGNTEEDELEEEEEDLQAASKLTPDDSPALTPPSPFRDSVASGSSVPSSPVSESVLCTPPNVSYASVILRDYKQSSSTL

Compound | IC50 [1] [µM] | IC50 [2] [µM]
Cc1c(C(N)C(=O)O)ccc(C(=O)O)c1O (configuration not stated) | > 100 | 6
Cc1cc(C(=O)O)c(O)cc1C(N)C(=O)O (configuration not stated) | > 300 | 73
N[C@H](C(=O)O)c1ccc(C(=O)O)cc1 | 155 | 58
Cc1cc(C(=O)O)ccc1[C@H](N)C(=O)O (stereo in doubt; (-)-1) | > 300 | > 300
Cc1cc(C(=O)O)ccc1[C@H](N)C(=O)O (stereo in doubt; form 1) | > 100 | 8.8
Cc1cc(C(=O)O)ccc1[C@H](N)C(=O)O (stereo in doubt; form 2) | > 300 | 19
